22 molecules from patent US11345712B2, “Protein-targeting compounds and pharmaceutical compositions thereof, and their therapeutic applications” (BioTheryX, Inc., priority 2019, dated 2022) can be followed below.

The test deals with MOLM-13 cells. Kind of test: MOLM-13 cell viability assay (CellTiter-Glo). The class given is cell-based. The following applies: Homo sapiens, MOLM-13, 72 h, 3 days, concentration of 1 μM, read-out: Antiproliferative Activity (inhibition, MOLM-13 cell viability). How it is done: MOLM-13 cells were cultured in RPMI 1640 media supplemented with 10% fetal bovine serum, streptomycin, and penicillin. The cells were plated in white walled 96-well plates at 2,500 cells/well. The cells were incubated in DMSO (control) or an indicated compound for 3 days at 37° C. and 5% CO2. Following the incubation period, 100 μL of CELLTITER-GLO® (CTG) reagent was added to each well. Following a 10 minutes incubation with shaking, luminescence was measured using an ENVISION® Multimode plate reader.
For orientation: Cellular ATP, detected with luciferase, serves as a proxy for viable cell number.
As for `Cc1ccc(N(C)C(=O)N(C)Cc2scc3c2CN(C2CCC(=O)NC2=O)C3=O)cc1Cl` (stereo not shown) [II-20, 1-(3-chloro-4-methylphenyl)-3-((5-(2,6-dioxopiperidin-3-yl)-4-oxo-5,6-dihydro-4H-thieno[3,4-c]pyrrol-1-yl)methyl)-1,3-dimethylurea], the cytotoxicity at 1 µM is below 25%.
As to `Cc1ccc(C(F)(F)C(=O)NCc2scc3c2CN(C2CCC(=O)NC2=O)C3=O)cc1Cl` (stereo not shown) [II-28, 2-(3-chloro-4-methylphenyl)-N-((5-(2,6-dioxopiperidin-3-yl)-4-oxo-5,6-dihydro-4H-thieno[3,4-c]pyrrol-1-yl)methyl)-2,2-difluoroacetamide], the cytotoxicity at 1 µM was below 25%.
Then `O=C(CCCc1ccc(N2CCOCC2)cc1)NCc1scc2c1CN(C1CCC(=O)NC1=O)C2=O` (stereo not shown) [II-146, N-((5-(2,6-dioxopiperidin-3-yl)-4-oxo-5,6-dihydro-4H-thieno[3,4-c]pyrrol-1-yl)methyl)-4-(4-morpholinophenyl)butanamide], with below 25%.
For `CC(C)(C)c1ccc(S(=O)(=O)NCCc2scc3c2CN(C2CCC(=O)NC2=O)C3=O)cc1` (stereo not shown) [II-131, 4-(tert-butyl)-N-(2-(5-(2,6-dioxopiperidin-3-yl)-4-oxo-5,6-dihydro-4H-thieno[3,4-c]pyrrol-1-yl)ethyl)benzenesulfonamide], the cytotoxicity at 1 µM was below 25%.
For `Cc1ccc(NC(=O)NCCc2scc3c2CN(C2CCC(=O)NC2=O)C3=O)cc1Cl` (stereo not shown) [II-31, 1-(3-chloro-4-methylphenyl)-3-(2-(5-(2,6-dioxopiperidin-3-yl)-4-oxo-5,6-dihydro-4H-thieno[3,4-c]pyrrol-1-yl)ethyl)urea], the cytotoxicity at 1 µM was above 80%.
Take `CC(C)c1ccc(C(=O)C(=O)NCc2cccc3c2CN(C2CCC(=O)NC2=O)C3=O)s1` (stereo not shown) [Compound I-59, N-((2-(2,6-dioxopiperidin-3-yl)-1-oxoisoindolin-4-yl)methyl)-2-(5-isopropylthiophen-2-yl)-2-oxoacetamide]: the cytotoxicity at 1 µM fell in the range of 25 to 50%.
Take `Cc1cc(C)c(C(=O)C(=O)NCc2ccc3c(c2)CN(C2CCC(=O)NC2=O)C3=O)c(C)c1` (stereo not shown) [Compound I-85, N-((2-(2,6-dioxopiperidin-3-yl)-1-oxoisoindolin-5-yl)methyl)-2-oxo-2-(2,4,6-trimethylphenyl)acetamide]: the cytotoxicity at 1 µM was 50 to 80%.
Consider `O=C1CCC(N2Cc3cc(CNC(=O)Nc4c(Cl)cccc4Cl)sc3C2=O)C(=O)N1` (stereo not shown) [II-42, 1-(2,6-dichlorophenyl)-3-((5-(2,6-dioxopiperidin-3-yl)-6-oxo-5,6-dihydro-4H-thieno[2,3-c]pyrrol-2-yl)methyl)urea], for which the cytotoxicity at 1 µM is below 25%.
Turning to `CC(C)[C@@H](N)C(=O)OCN1C(=O)CCC(N2Cc3c(CNC(=O)C(=O)c4ccc(C(C)(C)C)cc4)cccc3C2=O)C1=O` (stereo partly drawn) [Compound I-49, (2R)-(3-(4-((2-(4-(tert-butyl)phenyl)-2-oxoacetamido)methyl)-1-oxoisoindolin-2-yl)-2,6-dioxopiperidin-1-yl)methyl 2-amino-3-methylbutanoate], the cytotoxicity at 1 µM lay within 50 to 80%.
For `CC(C)(C)c1cccc(C(=O)C(=O)NCc2scc3c2CN(C2CCC(=O)NC2=O)C3=O)c1` (stereo not shown) [Compound I-19, 2-(3-tert-butylphenyl)-N-((5-(2,6-dioxopiperidin-3-yl)-4-oxo-5,6-dihydro-4H-thieno[3,4-c]pyrrol-1-yl)methyl)-2-oxoacetamide], the cytotoxicity at 1 µM is above 80%.
On to `CC(=O)Nc1ccc(C(=O)C(=O)NCc2scc3c2CN(C2CCC(=O)NC2=O)C3=O)cc1` (stereo not shown) [Compound I-20, 2-(4-acetamidophenyl)-N-((5-(2,6-dioxopiperidin-3-yl)-4-oxo-5,6-dihydro-4H-thieno[3,4-c]pyrrol-1-yl)methyl)-2-oxoacetamide], for which the cytotoxicity at 1 µM was below 25%.
For `Cc1cc(C(C)(C)C)cc(C)c1C(=O)C(=O)NCc1cccc2c1CN(C1CCC(=O)NC1=O)C2=O` (stereo not shown) [Compound I-105, 2-(4-(tert-butyl)-2,6-dimethylphenyl)-N-((2-(2,6-dioxopiperidin-3-yl)-1-oxoisoindolin-4-yl)methyl)-2-oxoacetamide], the cytotoxicity at 1 µM was below 25%.
Take `CC(C)(C)c1ccc(C(=O)C(=O)NCc2cccc3c2C(=O)N(C2CCC(=O)NC2=O)C3)cc1` (stereo not shown) [Compound I-38, 2-(4-(tert-butyl)phenyl)-N-((2-(2,6-dioxopiperidin-3-yl)-3-oxoisoindolin-4-yl)methyl)-2-oxoacetamide]: the cytotoxicity at 1 µM was below 25%.
Then `Cc1ccc(C=CC(=O)NCc2scc3c2CN(C2CCC(=O)NC2=O)C3=O)cc1Cl` (stereo not shown) [II-34, 3-(3-chloro-4-methylphenyl)-N-((5-(2,6-dioxopiperidin-3-yl)-4-oxo-5,6-dihydro-4H-thieno[3,4-c]pyrrol-1-yl)methyl)propenamide], with above 80%.
As for `Cc1ccc(C(N)C(=O)NCc2scc3c2CN(C2CCC(=O)NC2=O)C3=O)cc1` (stereo not shown) [II-88, 2-amino-N-((5-(2,6-dioxopiperidin-3-yl)-4-oxo-5,6-dihydro-4H-thieno[3,4-c]pyrrol-1-yl)methyl)-2-(p-tolyl)acetamide], the cytotoxicity at 1 µM is below 25%.
As for `O=C(Cc1ccc(N2CCCC2)cc1)NCc1scc2c1CN(C1CCC(=O)NC1=O)C2=O` (stereo not shown) [II-93, N-((5-(2,6-dioxopiperidin-3-yl)-4-oxo-5,6-dihydro-4H-thieno[3,4-c]pyrrol-1-yl)methyl)-2-(4-(pyrrolidin-1-yl)phenyl)acetamide], the cytotoxicity at 1 µM is below 25%.
Then `O=C1CCC(N2Cc3c(csc3CNC(=O)C(=O)c3ccc(C4CC4)cc3)C2=O)C(=O)N1` (stereo not shown) [Compound I-12, 2-(4-cyclopropylphenyl)-N-((5-(2,6-dioxopiperidin-3-yl)-4-oxo-5,6-dihydro-4H-thieno[3,4-c]pyrrol-1-yl)methyl)-2-oxoacetamide], with below 25%.
`CCC(C)c1ccc(C(=O)C(=O)NCc2scc3c2CN(C2CCC(=O)NC2=O)C3=O)cc1` (stereo not shown) [Compound I-15, 2-(4-(sec-butyl)phenyl)-N-((5-(2,6-dioxopiperidin-3-yl)-4-oxo-5,6-dihydro-4H-thieno[3,4-c]pyrrol-1-yl)methyl)-2-oxoacetamide]: the cytotoxicity at 1 µM lay in the range of 25 to 50%.
Consider `CC(C)(C)c1ccc(C(=O)C(=O)NCc2cc(F)cc3c2CN(C2CCC(=O)NC2=O)C3=O)cc1` (stereo not shown) [Compound I-29, 2-(4-(tert-butyl)phenyl)-N-((2-(2,6-dioxopiperidin-3-yl)-6-fluoro-1-oxoisoindolin-4-yl)methyl)-2-oxoacetamide], for which the cytotoxicity at 1 µM is above 80%.
On to `O=C1CCC(N2Cc3c(csc3CNC(=O)C(=O)c3ccc(Cl)c(Cl)c3)C2=O)C(=O)N1` (stereo not shown) [Compound I-24, 2-(3,4-dichlorophenyl)-N-((5-(2,6-dioxopiperidin-3-yl)-4-oxo-5,6-dihydro-4H-thieno[3,4-c]pyrrol-1-yl)methyl)-2-oxoacetamide], for which the cytotoxicity at 1 µM was in the range of 25 to 50%.
On to `CN(Cc1ccc2c(c1)CN(C1CCC(=O)NC1=O)C2=O)C(=O)C(=O)c1ccc(C(C)(C)C)cc1` (stereo not shown) [Compound I-34, 2-(4-(tert-butyl)phenyl)-N-((2-(2,6-dioxopiperidin-3-yl)-1-oxoisoindolin-5-yl)methyl)-N-methyl-2-oxoacetamide], for which the cytotoxicity at 1 µM was below 25%.
As for `CC(C)(C)c1ccc(S(=O)(=O)NCc2scc3c2CN(C2CCC(=O)NC2=O)C3=O)cc1` (stereo not shown) [II-124, 4-(tert-butyl)-N-((5-(2,6-dioxopiperidin-3-yl)-4-oxo-5,6-dihydro-4H-thieno[3,4-c]pyrrol-1-yl)methyl)benzenesulfonamide], the cytotoxicity at 1 µM is below 25%.
